Data published in patent US20160113932A1, “TREATMENT OF CANCERS USING PI3 KINASE ISOFORM MODULATORS” (INFINITY PHARMACEUTICALS, INC., priority 2013, published 2016).
“And” between values parts separate entries of the source, which are not always exact repeats. Identical values can stand only once.

What was measured:
[1] = Plasma protein binding in vitro, rat; assay type: in vitro ADME; conditions: all concentrations tested
[2] = test system: central nervous system; assay: Neurofunctional study (FOB, motor activity) in Sprague-Dawley rat; assay type: in vivo; conditions: male rats, 2 h after a 350 mg/kg dose
[3] = test system: respiratory system; assay: Respiratory study in Sprague Dawley rat; assay type: in vivo; conditions: male rat, single oral administration up to 350 mg/kg
[4] = Absolute bioavailability / pharmacokinetics in BALB/c mice; assay type: in vivo; conditions: Mouse, PO, 10 mg/kg, suspension, calculated using AUC0-last
[5] = Absolute bioavailability / pharmacokinetics in Sprague-Dawley rats; assay type: in vivo; conditions: Rat, PO, 10 mg/kg, suspension
[6] = Absolute bioavailability / pharmacokinetics in Beagle dogs; assay type: in vivo; conditions: Dog, PO, 5 mg/kg
[7] = Absolute bioavailability / pharmacokinetics in cynomolgus monkeys; assay type: in vivo; conditions: Monkey, PO, 5 mg/kg, suspension
[8] = In vitro genetic toxicity studies
[9] = Clinical pharmacokinetics after 25 mg or 75 mg BID administration; assay type: in vivo, human
[10] = test system: CD63 expression on the surface of basophils; assay: Basophil activation assay in whole blood of oncology patients (PI3K inhibition); assay type: in vivo, human; conditions: from PK/PD in patients
Method: PK and PD markers were evaluated after the first dose (e.g., 8 mg BID) and at steady state. PD activity (PI3K inhibition) in whole blood was evaluated using a basophil activation assay which measured reduction in CD63 expression on the surface of basophils following ex vivo stimulation.

[11] = test system: serum cytokines/chemokines and matrix metalloproteinases; assay: Serum cytokines/chemokines in patients, Milliplex 96-well immuno-assay; assay type: in vivo, human; conditions: CLL patients pooled, 8-75 mg BID, C1D8 and/or C2D1
Method: Serum concentrations of a panel of human cytokines/chemokines were determined by Milliplex 96-well immuno-assay as described below.
the blood was allowed to clot for at least 30 minutes before centrifugation for 10 minutes at 1000×g. Serum was removed and either assayed immediately or aliquoted and stored at ≦−20° C. When using frozen samples, it is recommended to thaw the samples completely, mix well by vortexing and centrifuge prior to use in the assay to remove particulates.
1.0 mL deionized water was added to the bottle containing lyophilized Serum Matrix (catalog number MX HSM from MILLIPLEX® Map), and was allowed to be mixed will for at least 10 minutes for complete reconstitution.
200 μL of wash buffer was added into each well of the plate. The plate was sealed and mixed on a plate shaker for 10 minutes at room temperature (20-25° C.). The wash buffer was decanted and the residual amount was removed from all wells by inverting the plate and tapping it smartly onto absorbent towels several times. 25 μL of each standard or control was added into the appropriate wells. […]
The plate was run on Luminex 200™, HTS, FLEXMAP 3D™ or MAGPIX® with xPONENT software. The Median Fluorescent Intensity (MFI) data was saved and analyzed using a 5-parameter logistic or spline curve-fitting method for calculating cytokine/chemokines concentrations in samples. […]

[12] = test system: OCI-LY3; assay: DLBCL cellular growth inhibition assay; assay type: cell-based; conditions: Homo sapiens
Method: Activation of the PI3K pathway is an important component of normal B-cell receptor (BCR) signaling and has been implicated in the pathogenesis of DLBCL. […] There was rapid modulation of phospho-AKT and phospho-PRAS40 by 30 minutes, whereas modulation of phospho-S6 was not detected until after 8 hours.

[13] = test system: U2932; assay: DLBCL cellular growth inhibition, 72 hour CTG assay; assay type: cell-based; conditions: Homo sapiens
[14] = test system: Loucy; assay: T-ALL growth inhibition; assay type: cell-based, human; conditions: Homo sapiens; PTEN deficient Loucy cell line
Method: To further explore the individual contributions of the varying PI3K isoforms on T-ALL cell growth, Loucy ALL cells were treated with doxorubicin and various PI3K inhibitors as shown in FIG. 32 at various concentrations as denoted in the figure.

Question: Which “percent free in plasma compared with human plasma” value [1] does the source give for C[C@H](Nc1ncnc2[nH]cnc12)c1cc2cccc(Cl)c2c(=O)n1-c1ccccc1 [Compound 292] here?
Answer: consistently higher

Question: What about the locomotor activity [2] of the same compound?
Answer: Significant decreases

Question: What about the “effects on respiratory parameters (respiratory rate, tidal volume, minute volume)” value [3] of the same compound?
Answer: no Compound 292-related effects

Question: What about the Foral [4] of the same compound?
Answer: 7% and 7i %

Question: What about the Foral [5] of the same compound?
Answer: 57%

Question: What about the Foral ([6]; calculated using 0.5 mg/kg IV dose as reference and AUC0-last) of the same compound?
Answer: 97g'i %

Question: What about the Foral ([6]; calculated using 1 mg/kg IV dose as reference and AUC0-last) of the same compound?
Answer: 40% and 40h'i %

Question: And the Foral [7]?
Answer: 40%

Question: And the genetic toxicity [8]?
Answer: no genetic toxicity

Question: And the “mean predose steady state plasma concentration” value ([9]; 25 mg BID)?
Answer: about 390 ng/ml

Question: And the “time of maximal plasma concentrations following dosing” value ([9]; 25 mg or 75 mg BID)?
Answer: around 1 hour

Question: And the AUC versus dose ([9]; doses through 75 mg BID)?
Answer: increases proportionally with doses

Question: And the half-life ([9]; human, plasma, oral, both 25 mg and 75 mg BID, read-out: elimination half-life)?
Answer: 4 to 5 h

Question: And the “dose achieving complete inhibition of PI3K-δ” value [10]?
Answer: ≥ 15 mg BID

Question: What about the “doses that increasingly suppress PI3K-γ” value [10] of the same compound?
Answer: ≥ 25 mg BID

Question: And the “analytes decreased after treatment compared to baseline” value [11]?
Answer: 10 of 72 analytes

Question: What about the IC50 [12] of the same compound?
Answer: > 50 µM

Question: And the IC50 [13]?
Answer: > 50 µM

Question: And the IC50 [14]?
Answer: 0.245 µM
